# Experimental data reported in US20120053119A1, “THERAPEUTIC METHOD FOR INCREASING PANCREATIC BETA CELL MASS” (priority 2009, published 2012).
# Tests used:
# Wnt target genes = assay: Wnt signaling pathway-focused microarray (SuperArray) of INS-1 cells treated with SDF-1; format: cell-based; conditions: 4 hrs
# Description: FIG. 8. Wnt signaling focused array analysis. INS-1 cells were stimulated by SDF-1 (10 nM) for 4 hr. Total RNA was isolated and biotin-labeled complementary RNAs were generated. The Wnt signaling pathway-focused microarray filters (SuperArray Bioscience) were hybridzed with these biotin-labeled targets at 60 degree overnight. The filters were washed and subsequently incubated with alkaline phosphatase-conjugated streptavidin and CDP-substrate. The chemiluminescent images were captured. For quantification, the spot intensity was measured and normalized to the value of the housekeeping gene GADPH. Shown is a representative image of the focused array.
# Gene expression profiling on focused microarrays INS-1 cells were untreated or treated with 10 nM SDF-1 for 4 hrs. Total RNA was isolated and Biotin-labeled complimentary RNAs were generated using the TrueLabeling-AMP Linear RNA Amplification Kit (SuperArray Bioscience Corp.) The Wnt-signaling pathway-focused microarray filters (118 probes) (SuperArray Bioscience Corp.) were hybridized with these biotin-labeled targets (5 microg/array at 60 C overnight. The filters were washed and subsequently incubated with alkaline phosphatase-conjugated streptavidin and CDPStar substrate. The Chemiluminescent images were captured using Kodak Digital Station 440 (Perkin Elmer). For quantification, the spot intensity was measured and normalized to the value of the housekeeping gene GAPDH. Fold-changes in gene expression levels were determined by comparisons of hybridization densities of SDF-1 treated versus untreated INS-1 cells. Real time RT-PCR was carried out by using the SYBR® Green QPCR kit (Stratagene). Briefly, INS-1 cells were treated with 10 nM SDF-1 or PBS vehicle control for 4 h. Total RNA was reverse-transcribed to cDNA using Super-Script II reverse transcriptase (Invitrogen). Real-time PCR was performed to amplify cyclin D1 and beta-catenin.
# The expression of transcripts in INS-1 cells in response to SDF-1 (10 nM, 4 hrs) was determined on focused arrays of genes expressed in the Wnt signaling pathway. […] This finding is consistent with the down-regulation of genes expressing components of the beta-catenin destruction box involved in the degradation of beta-catenin that occurs in the absence of active Wnt signaling; for example, axin, glycogen synthase kinase-3 (Gsk3) and casein kinase 1 (Csnk1). These findings are consistent with the mechanism of Wnt/Fz-induced signaling involving Galphai/o activation of disheveled (Dv1) and the inhibition of the destruction box enzymes GSK3 and Csnk1 that destabilize and degrade betacatenin.
# INS-1 cells = assay: Thapsigargin-induced apoptosis, TUNEL staining; format: cell-based; conditions: co-incubation with SDF-1
# Description: FIG. 6. Inhibition of apoptosis by SDF-1 in INS-1 and MIN-6 cells is reversed by knock-down of betacatenin. A. Western blot analysis of extracts from MIN6 cells that were mock treated, thapsigargin-treated (1 μM) and/or siRNA transfected (0.25 mg/ml), by using anti-serum against cleaved caspase-3 (upper panel), anti-serum against cleaved PARP (middle panel) and actin antibody (lower panel) as a loading control. B. Caspase-3 activity (fluorescence/mg proteinx105) of INS-1 or MIN6 cells mock treated, thapsigargin-treated (1 μM) and/or siRNA transfected (0.25 mg/ml). Results are presented as mean±SD for n=3 independent experiments, All values are relative to the first (leftmost) bar. Statistical significance is depicted as * (p<0.05) when compared with control values (leftmost bar) and # (<0.05) when compared with […] thapsigargin treatment. C. Representative images are shown for TUNEL staining of INS-1 cells of n=3 independent experiments. Quantification of apoptotic cells is expressed as percent apoptotic cells relative to the total cells counted (lower left panel). […]
# DAPI (nuclei fluorescence) and TUNEL staining For the terminal deoxynucleotidyl transferase mediated dUTP nick end labeling (TUNEL) assay, cells seeded in 4-well chamber slides (Lab-Tak) were treated with thapsigargin and TUNEL assay performed (DeadEnd™ Fluorimetric TUNEL System kit, Promega). […]
substance,measurement,setting,value
"SDF-1: small, secreted 70 amino acid peptide chemokine, SEQ ID NO: 1, ligand of CXCR4",mRNA fold change by SDF-1,"Wnt target genes; gene Axin1, SDF-1 10 nM",−2.58 fold
same,mRNA fold change by SDF-1,"Wnt target genes; gene Ccnd1 (Cyclin D1), SDF-1 10 nM",1.48 fold
same,mRNA fold change by SDF-1,"Wnt target genes; gene Ccnd2 (Cyclin D2), SDF-1 10 nM",−2.29 fold
same,mRNA fold change by SDF-1,"Wnt target genes; gene Csnk2a1 (Casein kinase II, Alpha1), SDF-1 10 nM",−1.42 fold
same,mRNA fold change by SDF-1,"Wnt target genes; gene Csnk2b (Casein kinase 2, beta subunit), SDF-1 10 nM",−3.03 fold
same,mRNA fold change by SDF-1,"Wnt target genes; gene Ctbp1 (C-terminal binding protein 1), SDF-1 10 nM",−2.32 fold
same,mRNA fold change by SDF-1,"Wnt target genes; gene Ctnnb1 (Catenin (cadherin associated protein), beta 1), SDF-1 10 nM",1.99 fold
same,mRNA fold change by SDF-1,"Wnt target genes; gene Cxxc4 (CXXC finger 4), SDF-1 10 nM",−1.43 fold
same,mRNA fold change by SDF-1,"Wnt target genes; gene Dvl1 (Dishevelled, dsh homolog 1), SDF-1 10 nM",−1.92 fold
same,mRNA fold change by SDF-1,"Wnt target genes; gene Fosl1 (Fos-like antigen 1), SDF-1 10 nM",1.72 fold
same,mRNA fold change by SDF-1,"Wnt target genes; gene Foxn1 (Forkhead box N1), SDF-1 10 nM",1.66 fold
same,mRNA fold change by SDF-1,"Wnt target genes; gene Fshb (Follicle stimulating hormone beta), SDF-1 10 nM",1.69 fold
same,mRNA fold change by SDF-1,"Wnt target genes; gene Fzd2 (Frizzled homolog 2), SDF-1 10 nM",1.43 fold
same,mRNA fold change by SDF-1,"Wnt target genes; gene Gsk3a (Glycogen synthase kinase 3 alpha), SDF-1 10 nM",−1.67 fold
same,mRNA fold change by SDF-1,"Wnt target genes; gene Gsk3b (Glycogen synthase kinase 3 beta), SDF-1 10 nM",−1.51 fold
same,mRNA fold change by SDF-1,"Wnt target genes; gene Lrp5_predicted (Low density lipoprotein receptor-related protein 5), SDF-1 10 nM",1.72 fold
same,mRNA fold change by SDF-1,"Wnt target genes; gene Myc, SDF-1 10 nM",−2.55 fold
same,mRNA fold change by SDF-1,"Wnt target genes; gene Ppp2cb (Protein phosphatase 2, catalytic subunit, beta isoform), SDF-1 10 nM",−2.12 fold
same,mRNA fold change by SDF-1,"Wnt target genes; gene Ppp2r1b (Protein phosphatase 2, regulatory subunit A (PR 65), beta isoform), SDF-1 10 nM",−1.71 fold
same,mRNA fold change by SDF-1,"Wnt target genes; gene Rhoa (Ras homolog gene family, member A), SDF-1 10 nM",−1.32 fold
same,mRNA fold change by SDF-1,"Wnt target genes; gene Slc9a3r1 (Solute carrier family 9, isoform 3 regulator 1), SDF-1 10 nM",1.43 fold
same,mRNA fold change by SDF-1,"Wnt target genes; gene Tcfe2a (Transcription factor E2a), SDF-1 10 nM",1.61 fold
same,mRNA fold change by SDF-1,"Wnt target genes; gene Wif1 (Wnt inhibitory factor 1), SDF-1 10 nM",−1.92 fold
same,mRNA fold change by SDF-1,"Wnt target genes; gene Wnt7b (Wingless-related MMTV integration site 7B), SDF-1 10 nM",1.59 fold
same,effect on thapsigargin-increased number of TUNEL positive cells,INS-1 cells,inhibited
